Laboratory results taken from patent publication US4910211A, “Novel benzothiazole and antirheumatic agent comprising it as an active ingredient” (Kanebo Ltd., priority 1987, dated 1990).
“Also recorded” adds a separate entry of the source. Like-named read-outs stand apart in the source and are kept apart here.

Tests used:
[1] = system: Delayed-Type Hypersensitivity (DTH), normal immune reaction; assay: Effect on Delayed-Type Hypersensitivity (DTH): normal immune reaction; assay type: in vivo, BALB/c male mice; conditions: for Footpad swelling inhibition / Footpad swelling: oral, normal immune reaction; for Footpad swelling: mean ± standard error
Protocol: BALB/c male mice (8 weeks old) were sensitized by injection into the tail vein with 0.2 ml of 5×10^6 /ml sheep red blood cells (SRBC). Three days after the sensitization, 0.05 ml of 8×10^9 /ml SRBC was injected into the footpad of the right hind paw for elicitation of DTH. Footpad thickness was measured immediately before and 24 hours after the elicitation with a dial thickness gauge. The level of DTH was expressed as footpad swelling (mm) at 24 hour. The inhibition (%) of footpad swelling was calculated from the following equation.
The test compound was dissolved or suspended in a 1% gum arabic solution, and administered orally once a day over a period of 7 days starting from four days before the sensitization. To a control group, a 1% gum arabic solution was administered instead of the test compound. [formula] Texp : the mean of the footpad swelling in mice treated with the test compound
Tcont : the mean of the footpad swelling in mice of the control group

rat adjuvant arthritis = assay: Effect on the Development of Adjuvant Arthritis; assay type: in vivo, Fischer male rats; conditions: oral; for inhibition in vivo at 100 mg/kg / inhibition in vivo at 50 mg/kg: Rattus norvegicus, 504 h, 21 days after adjuvant, mean ± standard error
Protocol: Fischer male rats (8 weeks old; body weight 120-180 g) were grouped so that the average of body weights among the groups were nearly the same. Then, 0.1 ml of complete adjuvant obtained by suspending Mycobacterium butyricum (Difco Laboratories) in paraffin oil in a concentration of 6 mg/ml was injected into the footpad of the right hind paw to induce adjuvant arthritis.
Each of the test compounds was dissolved or suspended in a 1% gum arabic solution, and administered orally once a day on six days a week over a period of three weeks starting from the day of the adjuvant injection. The group administered with a 1% gum arabic solution instead of the test compound was served for a control. The volumes of both hind paws were measured plethysmographically by displacement of water at various times after injection of the adjuvant, and the percent paw edema inhibition was calculated from the following equation. [formula] Eexp : the percent paw edema in rats treated with the test compound Econt : the mean of percent paw edema in rats of the control group
The percent paw edema was calculated from the following equation. [formula] Vpost : the paw volume after treatment with the adjuvant Vpre : the paw volume before treatment with the adjuvant

in vivo = conditions: mouse, oral, mice died within a week, probit method
Protocol: ddY male mice (body weight about 23 g) were fasted overnight, and the test compound dissolved or suspended in a 1% gum arabic solution administered orally. From the number of mice died within a week, the LD50 value was calculated by the probit method.

[2] = system: Delayed-Type Hypersensitivity (DTH), enhanced immune reaction; assay: Effect on Delayed-Type Hypersensitivity (DTH): enhanced immune reaction; assay type: in vivo, BALB/c male mice; conditions: for Footpad swelling inhibition / Footpad swelling: oral, cyclophosphamide 75 mg/kg; for Footpad swelling: mean ± standard error
Protocol: Three days after the sensitization, 0.05 ml of 8×10^9 /ml SRBC was injected into the footpad of the right hind paw for elicitation of DTH. Twenty four hours later, footpad swelling (mm) was measured in the same way as in (A) above, and the inhibition (%) of footpad swelling was calculated from the following equation.
The test compound was dissolved or suspended in a 1% gum arabic solution, and administered orally once a day over a period of 7 days starting from four days before the sensitization (immediately after administration of cyclophosphamide). To a control group, a 1% gum arabic solution was administered instead of the test compound. The group, administered with physiological saline instead of cyclophosphamide and a 1% gum arabic solution instead of test compound respectively, was served for a normal group. [formula] Tcont : the mean of the footpad swelling in mice of the control group Texp : the mean of the footpad swelling in mice treated with the test compound
Tnor : the mean of the footpad swelling in mice of the normal group.

[3] = system: rat carrageenin-induced paw edema; assay: rat carrageenin-induced paw edema (acute inflammation); assay type: in vivo; conditions: 100 mg/kg
[4] = system: rat mustard-induced paw edema; assay: rat mustard-induced paw edema (subacute inflammation); assay type: in vivo; conditions: 100 mg/kg
[5] = 100 mg/kg, read-out: Paw edema inhibition, Non-treated paw
[6] = 100 mg/kg, read-out: Paw edema inhibition, Treated paw
[7] = 3 mg/kg, ** P < 0.01 vs control
[8] = 10 mg/kg, ** P < 0.01 vs control
[9] = 30 mg/kg, * P < 0.05, ** P < 0.01 vs control
[10] = 100 mg/kg, * P < 0.05 vs control

## CC(=O)Oc1cccc2sc(-c3ccc(C)cc3)nc12 [Example 5, 4-Acetoxy-2-(4-methylphenyl)benzothiazole]
[1]; 1 mg/kg
  Footpad swelling inhibition: 0.0%
  Footpad swelling: 59 ± 5 × 10^-2 mm
[1]; 3 mg/kg
  Footpad swelling inhibition: -6.8%
  Footpad swelling: 63 ± 6 × 10^-2 mm
[1]; 10 mg/kg
  Footpad swelling inhibition: 3.4%
  Footpad swelling: 57 ± 6 × 10^-2 mm
[1]; 30 mg/kg
  Footpad swelling inhibition: -8.5%
  Footpad swelling: 64 ± 6 × 10^-2 mm
[1]; 100 mg/kg
  Footpad swelling inhibition: 10.2%
  Footpad swelling: 53 ± 4 × 10^-2 mm
Rat adjuvant arthritis; [5]
  inhibition in vivo at 100 mg/kg: 32 ± 7.7%
Rat adjuvant arthritis; [6]
  inhibition in vivo at 100 mg/kg: 31.8 ± 3.9%
In vivo
  LD50 at 168 h: > 3000 mg/kg
[2]; 1 mg/kg
  Footpad swelling inhibition: 57.1%
[2]; 1 mg/kg, * P < 0.05 vs control
  Footpad swelling: 37 ± 5 × 10^-2 mm
[2]; 3 mg/kg
  Footpad swelling inhibition: 66.7%
[2]; [7]
  Footpad swelling: 35 ± 1 × 10^-2 mm
[2]; 10 mg/kg
  Footpad swelling inhibition: 85.7%
[2]; [8]
  Footpad swelling: 31 ± 3 × 10^-2 mm
[2]; 30 mg/kg
  Footpad swelling inhibition: 76.2%
[2]; [9]
  Footpad swelling: 33 ± 2 × 10^-2 mm
[2]; 100 mg/kg
  Footpad swelling inhibition: 57.1%
[2]; [10]
  Footpad swelling: 37 ± 4 × 10^-2 mm

## COc1ccc(-c2nc3c(OC(C)=O)cccc3s2)cc1 [Example 6, 4-Acetoxy-2-(4-methoxyphenyl)benzothiazole]
Rat adjuvant arthritis; [5]
  inhibition in vivo at 100 mg/kg: 27.4 ± 10.8%
Rat adjuvant arthritis; [6]
  inhibition in vivo at 100 mg/kg: 24.7 ± 3.7%
In vivo
  LD50 at 168 h: > 3000 mg/kg

## O=C([O-])c1ccccc1Nc1cc(Cl)ccc1C(=O)[O-].[Na+].[Na+] [Lobenzarit disodium, N-(2-carboxyphenyl)-4-chloroanthranilic acid disodium salt]
[1]; 1 mg/kg
  Footpad swelling inhibition: 4.3%
  Footpad swelling: 67 ± 2 × 10^-2 mm
[1]; 3 mg/kg
  Footpad swelling inhibition: 8.6%
  Footpad swelling: 64 ± 5 × 10^-2 mm
[1]; 10 mg/kg
  Footpad swelling inhibition: -8.6%
  Footpad swelling: 76 ± 6 × 10^-2 mm
[1]; 30 mg/kg
  Footpad swelling inhibition: 7.1%
  Footpad swelling: 65 ± 4 × 10^-2 mm
[1]; 100 mg/kg
  Footpad swelling inhibition: 7.1%
  Footpad swelling: 65 ± 5 × 10^-2 mm
[1]; any doses, disodium salt
  effect on DTH in a normal immune reaction (in words): did not inhibit footpad swelling at any doses; also recorded: no effect on a normal immune reaction
[3]
  effect on rat carrageenin-induced paw edema: no effect
Rat adjuvant arthritis; 100 mg/kg, adjuvant arthritis rats, footnote of Table 1
  death during the test: Four animals out of 16
Rat adjuvant arthritis; read-out: Paw edema inhibition, Non-treated paw
  inhibition in vivo at 50 mg/kg: -9 ± 12%
Rat adjuvant arthritis; read-out: Paw edema inhibition, Treated paw
  inhibition in vivo at 50 mg/kg: 6.3 ± 5.3%
Rat adjuvant arthritis; [5]
  inhibition in vivo at 100 mg/kg: -1.7 ± 11.4%
Rat adjuvant arthritis; [6]
  inhibition in vivo at 100 mg/kg: 15.1 ± 6.6%
[4]
  effect on rat mustard-induced paw edema: no effect
[2]; 1 mg/kg
  Footpad swelling inhibition: 20.0%
[2]; 1 mg/kg, * P < 0.05 vs control
  Footpad swelling: 47 ± 3 × 10^-2 mm
[2]; 3 mg/kg
  Footpad swelling inhibition: 40.0%
[2]; [7]
  Footpad swelling: 43 ± 3 × 10^-2 mm
[2]; 10 mg/kg
  Footpad swelling inhibition: -10.0%
[2]; [8]
  Footpad swelling: 53 ± 3 × 10^-2 mm
[2]; 30 mg/kg
  Footpad swelling inhibition: 50.0%
[2]; [9]
  Footpad swelling: 41 ± 3 × 10^-2 mm
[2]; 100 mg/kg
  Footpad swelling inhibition: 50.0%
[2]; [10]
  Footpad swelling: 41 ± 3 × 10^-2 mm
[2]; any doses
  effect on DTH in an enhanced immune reaction (in words): suppresses an abnormally enhanced immune reaction

## CC(=O)Oc1cccc2nc(-c3ccc(C)cc3)sc12 [C, 7-acetoxy-2-(4-methylphenyl)benzothiazole]
Rat adjuvant arthritis; [5]
  inhibition in vivo at 100 mg/kg: 8.9 ± 10.4%
Rat adjuvant arthritis; [6]
  inhibition in vivo at 100 mg/kg: 16.6 ± 4.1%

## CC(=O)Oc1ccc2sc(-c3ccc(C)cc3)nc2c1 [A, 5-acetoxy-2-(4-methylphenyl)benzothiazole]
Rat adjuvant arthritis; [5]
  inhibition in vivo at 100 mg/kg: 4.5 ± 11.7%
Rat adjuvant arthritis; [6]
  inhibition in vivo at 100 mg/kg: 12.9 ± 4.4%

## CC(=O)Oc1ccc2nc(-c3ccc(C)cc3)sc2c1 [B, 6-acetoxy-2-(4-methylphenyl)benzothiazole]
Rat adjuvant arthritis; [5]
  inhibition in vivo at 100 mg/kg: 4.4 ± 14.2%
Rat adjuvant arthritis; [6]
  inhibition in vivo at 100 mg/kg: -7.6 ± 8.8%

## CC(=O)Oc1cccc2sc(-c3ccc(C(=O)O)cc3)nc12 [Example 7, 4-(4-Acetoxybenzothiazol-2-yl)benzoic acid]
Rat adjuvant arthritis; [5]
  inhibition in vivo at 100 mg/kg: 38.5 ± 6%
Rat adjuvant arthritis; [6]
  inhibition in vivo at 100 mg/kg: 29.9 ± 2.9%
In vivo
  LD50 at 168 h: 2020 mg/kg

## COC(=O)c1ccc(-c2nc3c(OC(C)=O)cccc3s2)cc1 [Example 8, Methyl 4-(4-acetoxybenzothiazol-2-yl)benzoate]
Rat adjuvant arthritis; [5]
  inhibition in vivo at 100 mg/kg: 28.6 ± 8.8%
Rat adjuvant arthritis; [6]
  inhibition in vivo at 100 mg/kg: 29.3 ± 3.6%
In vivo
  LD50 at 168 h: > 3000 mg/kg
